The text below walks through data of ChEMBL document CHEMBL1137850, “Pyridoxine as a template for the design of antiplatelet agents” (2004).

A short description of assay [1]: Percent reduction of thrombin receptor activating peptide (12 uM) induced platelet aggregation was determined at 0.5 mM concentration. The format is functional, Homo sapiens.
Assay [2] in a line: Percent reduction of ADP (4 uM) induced platelet aggregation was determined at 0.5 mM concentration. The format is functional, Homo sapiens.
Assay [3] is described as follows: Percent reduction of collagen (5 ug/mL) induced platelet aggregation was determined at 0.5 mM concentration. The class given is functional, Homo sapiens.
The nature of assay [4]: Percent reduction of collagen (1 ug/mL) induced platelet aggregation was determined at 0.5 mM concentration. The class given is functional, Homo sapiens.
A short description of assay [5]: Percent reduction of collagen (1 ug/mL) induced platelet aggregation was determined at 0.25 mM concentration. The class given is functional, Homo sapiens.
Assay [6] has as its system Rattus norvegicus. Put plainly: Percent reduction in infarct volume after treatment at 20.0 mg/kg dose. The format is functional.
The subject of assay [7] is Rattus norvegicus. Put plainly: Percent reduction in infarct size after bolus injection at 0.07 mol/kg dose. The format is functional.
Assay [8] deals with Rattus norvegicus. Put plainly: Percent reduction in infarct volume after treatment at 0.0 mg/kg dose. The class given is functional.
Assay [9] can be described thus: Percent reduction of collagen (5 ug/mL) induced platelet aggregation was determined at 0.25 mM concentration. The format is functional, Homo sapiens.
Assay [10] has as its system Rattus norvegicus. Put plainly: Percent reduction in infarct volume after treatment at 40.0 mg/kg dose. The format is functional.
Assay [11] can be described thus: Percent reduction of thrombin receptor activating peptide (12 uM) induced platelet aggregation was determined at 0.25 mM concentration. The class given is functional, Homo sapiens.
Assay [12] concerns Rattus norvegicus. Put plainly: Percent reduction in infarct volume after treatment at 10.0 mg/kg dose. The format is functional.
Assay [13] is described as follows: Percent reduction of ADP (4 uM) induced platelet aggregation was determined at 0.25 mM concentration. The format is functional, Homo sapiens.
For assay [14], the system named is Rattus norvegicus. Put plainly: Percent reduction in infarct size after bolus injection at 0.1 mol/kg dose. The format is functional.

Structures are written as SMILES. Several values for one entry are separate records, joined by “and”; a condition that tells them apart may be missing. Equal values may be shown once.

In the case of `Cc1ncc(Cn2cnnn2)c(CO)c1O`, the Reduction in [1] is given as 7%; in assay [2], 4%; in assay [3] it was 0%; in assay [4], 6%.
Regarding `Cc1ncc(CNc2ccc(C(=N)N)cc2)c(CO)c1O`, the Reduction in assay [1] came to 88%; in assay [2], 79%; in assay [3], 24%; in assay [4], 10%.
The like results for `Cc1ncc(CNC(=O)Nc2ccc(F)cc2)c(CO)c1O` were, in that order, 0%, 0%, 1% and 0%.
On to `Cc1ncc(C/N=C(\S)Nc2ccc(F)cc2)c(CO)c1O`, for which the Reduction in assay [1] was found to be 6%; in [2], 18%; in [3] it was 4%; in [4], 23%.
For the compound `Cc1ncc(Cn2nnc(N)n2)c(CO)c1O`, the Reduction in assay [1] is reported as 2%; in [2], 0%; in [3] it was 0%; in assay [4], 1%.
In the case of `Cc1ncc(CNc2ccc(-c3ccc(C(=N)N)cc3)cc2)c(CO)c1O`, the Reduction in [5] was 41%; with Rattus norvegicus [6] it was 26.5%; in the assay on Rattus norvegicus [7], 30%; in [2] it was 82% and 66%; in assay [3] it was 30%; in the assay with Rattus norvegicus [8], 40%. Moreover, the Reduction in assay [9] is on record as 1%; in [4], 93%; with Rattus norvegicus [10], 2.9%; in assay [11], 93%; with Rattus norvegicus [12] it was 30.5%; in assay [13], 63%.
Regarding `Cc1ncc(Cn2ccnc2C)c(CO)c1O`, the Reduction in assay [1] came to 3%; in assay [2], 1%; in assay [3] it was 1%; in assay [4], 0%.
In the case of `Cc1ncc(CO)c(CO)c1O` [PYRIDOXINE], the Reduction in assay [1] was 0%; in assay [2] it was 0%; in assay [3] it was 4%; in assay [4], 4%.
As for `Cc1ncc(COP(=O)(O)O)c(C=O)c1O` [PYRIDOXAL PHOSPHATE ANHYDROUS], the Reduction in assay [1] was 0%; in assay [2], 0%; in assay [3] it was 0%; in [4], 0%; with Rattus norvegicus [14], 31%.
